Measured values published in ChEMBL document CHEMBL4033793, “Potent and Selective Inhibitors of Human Sirtuin 5” (J Med Chem, 2018).
Residues, ends and D or L forms follow the SMILES beside them. *: point of attachment. X65 = O=C(O)[C@H](CC(=O)*)SCc1cccc([N+](=O)[O-])c1; X71 = O=C(O)[C@@H](CC(=O)*)SCc1cccc(C(F)(F)F)c1; X62 = Cc1cc(C)c(CS[C@@H](CC(=O)*)C(=O)O)c(C)c1; X63 = O=C(O)[C@@H](CC(=O)*)SCc1ccc(Cl)c(Cl)c1; X72 = O=C(O)[C@@H](CC(=O)*)SCc1cccc2ccccc12; X74 = O=C(O)[C@@H](CC(=O)*)SCc1ccc(Cl)cc1Cl; X64 = O=C(O)[C@H](CC(=O)*)Sc1c(Cl)cccc1Cl; X66 = COc1ccc(CS[C@@H](CC(=O)*)C(=O)O)cc1; X61 = O=C(O)[C@@H](CC(=O)*)Sc1cccc(Cl)c1; X68 = Cc1ccc(S[C@H](CC(=O)*)C(=O)O)cc1C; X70 = O=C(O)[C@H](CC(=O)*)Sc1cccc(Cl)c1; X73 = O=C(O)[C@H](CC(=O)*)SCc1ccccc1Cl; X60 = O=C(O)[C@@H](CC(=O)*)SCc1ccccc1; X69 = O=C(O)[C@@H](CC(=O)*)Sc1ccccc1; Bz = O=C(c1ccccc1)*

molecular target: NAD-dependent protein deacylase sirtuin-5, mitochondrial (Homo sapiens, UniProt Q9NXA8); assay: Inhibition of human recombinant N-terminal Strep2-tagged SIRT5 expressed in Escherichia coli BL21 (DE3) using Abz-GVLK(glutaryl)AY(NO2)GV-NH2 as substrate in presence of NAD+ by fluorescence assay
Sequence (Q9NXA8 whole entry): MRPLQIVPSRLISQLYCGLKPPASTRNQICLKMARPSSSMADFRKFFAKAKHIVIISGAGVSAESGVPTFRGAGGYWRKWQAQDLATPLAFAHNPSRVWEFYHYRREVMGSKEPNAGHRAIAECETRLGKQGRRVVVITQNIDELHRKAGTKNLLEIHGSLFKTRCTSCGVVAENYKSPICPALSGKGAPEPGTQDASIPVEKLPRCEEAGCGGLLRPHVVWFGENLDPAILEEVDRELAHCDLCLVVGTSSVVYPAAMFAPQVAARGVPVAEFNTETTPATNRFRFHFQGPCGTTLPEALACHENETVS

SMILES	IC50 [nM]
CC(C)C[C@H](NC(=O)[C@@H](NC(=O)CNC(=O)c1ccccc1)C(C)C)C(=O)N[C@@H](CCCCNC(=O)C[C@@H](Sc1cccc(Cl)c1)C(=O)O)C(=O)N[C@@H](CCC(=O)O)C(=O)N[C@@H](Cc1ccc(O)cc1)C(=O)NCC(=O)N[C@H](C(N)=O)C(C)C (Bz-GVLK(X61)EYGV-NH2)	1380
Cc1cc(C)c(CS[C@@H](CC(=O)NCCCC[C@H](NC(=O)[C@H](CC(C)C)NC(=O)[C@@H](NC(=O)CNC(=O)c2ccccc2)C(C)C)C(=O)N[C@@H](CCC(=O)O)C(=O)N[C@@H](Cc2ccc(O)cc2)C(=O)NCC(=O)N[C@H](C(N)=O)C(C)C)C(=O)O)c(C)c1 (Bz-GVLK(X62)EYGV-NH2)	5200
CC(C)C[C@H](NC(=O)[C@@H](NC(=O)CNC(=O)c1ccccc1)C(C)C)C(=O)N[C@@H](CCCCNC(=O)C[C@H](Sc1c(Cl)cccc1Cl)C(=O)O)C(=O)N[C@@H](CCC(=O)O)C(=O)N[C@@H](Cc1ccc(O)cc1)C(=O)NCC(=O)N[C@H](C(N)=O)C(C)C (Bz-GVLK(X64)EYGV-NH2)	577
Cc1ccc(S[C@H](CC(=O)NCCCC[C@H](NC(=O)[C@H](CC(C)C)NC(=O)[C@@H](NC(=O)CNC(=O)c2ccccc2)C(C)C)C(=O)N[C@@H](CCC(=O)O)C(=O)N[C@@H](Cc2ccc(O)cc2)C(=O)NCC(=O)N[C@H](C(N)=O)C(C)C)C(=O)O)cc1C (Bz-GVLK(X68)EYGV-NH2)	1260
CC(C)C[C@H](NC(=O)[C@@H](NC(=O)CNC(=O)c1ccccc1)C(C)C)C(=O)N[C@@H](CCCCNC(=O)C[C@H](Sc1cccc(Cl)c1)C(=O)O)C(=O)N[C@@H](CCC(=O)O)C(=O)N[C@@H](Cc1ccc(O)cc1)C(=O)NCC(=O)N[C@H](C(N)=O)C(C)C (Bz-GVLK(X70)EYGV-NH2)	120
CC(C)C[C@H](NC(=O)[C@@H](NC(=O)CNC(=O)c1ccccc1)C(C)C)C(=O)N[C@@H](CCCCNC(=O)C[C@@H](SCc1cccc(C(F)(F)F)c1)C(=O)O)C(=O)N[C@@H](CCC(=O)O)C(=O)N[C@@H](Cc1ccc(O)cc1)C(=O)NCC(=O)N[C@H](C(N)=O)C(C)C (Bz-GVLK(X71)EYGV-NH2)	1150

Now from value to compound:

IC50 [nM]	SMILES
644	CC(C)C[C@H](NC(=O)[C@@H](NC(=O)CNC(=O)c1ccccc1)C(C)C)C(=O)N[C@@H](CCCCNC(=O)C[C@@H](SCc1ccccc1)C(=O)O)C(=O)N[C@@H](CCC(=O)O)C(=O)N[C@@H](Cc1ccc(O)cc1)C(=O)NCC(=O)N[C@H](C(N)=O)C(C)C (Bz-GVLK(X60)EYGV-NH2)
780	CC(C)C[C@H](NC(=O)[C@@H](NC(=O)CNC(=O)c1ccccc1)C(C)C)C(=O)N[C@@H](CCCCNC(=O)C[C@@H](SCc1ccc(Cl)c(Cl)c1)C(=O)O)C(=O)N[C@@H](CCC(=O)O)C(=O)N[C@@H](Cc1ccc(O)cc1)C(=O)NCC(=O)N[C@H](C(N)=O)C(C)C (Bz-GVLK(X63)EYGV-NH2)
2710	CC(C)C[C@H](NC(=O)[C@@H](NC(=O)CNC(=O)c1ccccc1)C(C)C)C(=O)N[C@@H](CCCCNC(=O)C[C@H](SCc1cccc([N+](=O)[O-])c1)C(=O)O)C(=O)N[C@@H](CCC(=O)O)C(=O)N[C@@H](Cc1ccc(O)cc1)C(=O)NCC(=O)N[C@H](C(N)=O)C(C)C (Bz-GVLK(X65)EYGV-NH2)
1050	COc1ccc(CS[C@@H](CC(=O)NCCCC[C@H](NC(=O)[C@H](CC(C)C)NC(=O)[C@@H](NC(=O)CNC(=O)c2ccccc2)C(C)C)C(=O)N[C@@H](CCC(=O)O)C(=O)N[C@@H](Cc2ccc(O)cc2)C(=O)NCC(=O)N[C@H](C(N)=O)C(C)C)C(=O)O)cc1 (Bz-GVLK(X66)EYGV-NH2)
1800	CC(C)C[C@H](NC(=O)[C@@H](NC(=O)CNC(=O)c1ccccc1)C(C)C)C(=O)N[C@@H](CCCCNC(=O)C[C@@H](Sc1ccccc1)C(=O)O)C(=O)N[C@@H](CCC(=O)O)C(=O)N[C@@H](Cc1ccc(O)cc1)C(=O)NCC(=O)N[C@H](C(N)=O)C(C)C (Bz-GVLK(X69)EYGV-NH2)
207	CC(C)C[C@H](NC(=O)[C@@H](NC(=O)CNC(=O)c1ccccc1)C(C)C)C(=O)N[C@@H](CCCCNC(=O)C[C@@H](SCc1cccc2ccccc12)C(=O)O)C(=O)N[C@@H](CCC(=O)O)C(=O)N[C@@H](Cc1ccc(O)cc1)C(=O)NCC(=O)N[C@H](C(N)=O)C(C)C (Bz-GVLK(X72)EYGV-NH2)
533	CC(C)C[C@H](NC(=O)[C@@H](NC(=O)CNC(=O)c1ccccc1)C(C)C)C(=O)N[C@@H](CCCCNC(=O)C[C@H](SCc1ccccc1Cl)C(=O)O)C(=O)N[C@@H](CCC(=O)O)C(=O)N[C@@H](Cc1ccc(O)cc1)C(=O)NCC(=O)N[C@H](C(N)=O)C(C)C (Bz-GVLK(X73)EYGV-NH2)
432	CC(C)C[C@H](NC(=O)[C@@H](NC(=O)CNC(=O)c1ccccc1)C(C)C)C(=O)N[C@@H](CCCCNC(=O)C[C@@H](SCc1ccc(Cl)cc1Cl)C(=O)O)C(=O)N[C@@H](CCC(=O)O)C(=O)N[C@@H](Cc1ccc(O)cc1)C(=O)NCC(=O)N[C@H](C(N)=O)C(C)C (Bz-GVLK(X74)EYGV-NH2)
